Test results taken from ChEMBL document CHEMBL3867433, “Synthesis and antimicrobial activity of styryl/pyrrolyl/pyrazolyl sulfonylmethyl-1,3,4-oxadiazolyl amines and styryl/pyrrolyl/pyrazolyl sulfonylmethyl-1,3,4-thiadiazolyl amines” (2016).
Values after ≈ are worked out from the molar mass of the structure shown.

Key:
Assay type in all cases: functional
[1] = system: Aspergillus niger; experiment: Antifungal activity against Aspergillus niger assessed as inhibition of spore germination at 50 ug/well after 48 hrs by agar well diffusion method; conditions: read-out: DIZ
[2] = Antifungal activity against Penicillium chrysogenum assessed as inhibition of spore germination after 48 hrs by broth dilution method
[3] = system: Staphylococcus aureus; experiment: Antibacterial activity against Staphylococcus aureus at 25 ug/well after 24 hrs by agar well diffusion method; conditions: read-out: DIZ
[4] = Antifungal activity against Penicillium chrysogenum assessed as inhibition of spore germination at 50 ug/well after 48 hrs by agar well diffusion method
[5] = system: Aspergillus niger; experiment: Antifungal activity against Aspergillus niger assessed as inhibition of spore germination after 48 hrs by broth dilution method
[6] = system: Aspergillus niger; experiment: Fungicidal activity against Aspergillus niger assessed as inhibition of spore germination after 48 hrs
[7] = system: Bacillus subtilis; experiment: Antibacterial activity against Bacillus subtilis at 25 ug/well after 24 hrs by agar well diffusion method; conditions: read-out: DIZ
[8] = system: Staphylococcus aureus; experiment: Antibacterial activity against Staphylococcus aureus at 50 ug/well after 24 hrs by agar well diffusion method; conditions: read-out: DIZ
[9] = system: Staphylococcus aureus; experiment: Antibacterial activity against Staphylococcus aureus at 12.5 ug/well after 24 hrs by agar well diffusion method; conditions: read-out: DIZ
[10] = system: Staphylococcus aureus; experiment: Bactericidal activity against Staphylococcus aureus after 24 hrs
[11] = Antifungal activity against Penicillium chrysogenum assessed as inhibition of spore germination at 100 ug/well after 48 hrs by agar well diffusion method
[12] = system: Staphylococcus aureus; experiment: Antibacterial activity against Staphylococcus aureus after 24 hrs by broth dilution method
[13] = system: Bacillus subtilis; experiment: Bactericidal activity against Bacillus subtilis after 24 hrs
[14] = system: Klebsiella pneumoniae; experiment: Antibacterial activity against Klebsiella pneumoniae at 12.5 ug/well after 24 hrs by agar well diffusion method; conditions: read-out: DIZ
[15] = system: Bacillus subtilis; experiment: Antibacterial activity against Bacillus subtilis after 24 hrs by broth dilution method
[16] = system: Bacillus subtilis; experiment: Antibacterial activity against Bacillus subtilis at 100 ug/well after 24 hrs by agar well diffusion method; conditions: read-out: DIZ
[17] = system: Klebsiella pneumoniae; experiment: Bactericidal activity against Klebsiella pneumoniae after 24 hrs
[18] = system: Pseudomonas aeruginosa; experiment: Antibacterial activity against Pseudomonas aeruginosa at 12.5 ug/well after 24 hrs by agar well diffusion method; conditions: read-out: DIZ
[19] = system: Staphylococcus aureus; experiment: Antibacterial activity against Staphylococcus aureus at 100 ug/well after 24 hrs by agar well diffusion method; conditions: read-out: DIZ
[20] = system: Penicillium chrysogenum; experiment: Ratio of MFC to MIC for Penicillium chrysogenum
[21] = Antifungal activity against Penicillium chrysogenum assessed as inhibition of spore germination at 25 ug/well after 48 hrs by agar well diffusion method
[22] = system: Pseudomonas aeruginosa; experiment: Antibacterial activity against Pseudomonas aeruginosa after 24 hrs by broth dilution method
[23] = system: Bacillus subtilis; experiment: Antibacterial activity against Bacillus subtilis at 12.5 ug/well after 24 hrs by agar well diffusion method; conditions: read-out: DIZ
[24] = system: Pseudomonas aeruginosa; experiment: Bactericidal activity against Pseudomonas aeruginosa after 24 hrs
[25] = system: Pseudomonas aeruginosa; experiment: Antibacterial activity against Pseudomonas aeruginosa at 25 ug/well after 24 hrs by agar well diffusion method; conditions: read-out: DIZ
[26] = system: Klebsiella pneumoniae; experiment: Antibacterial activity against Klebsiella pneumoniae at 25 ug/well after 24 hrs by agar well diffusion method; conditions: read-out: DIZ
[27] = system: Klebsiella pneumoniae; experiment: Antibacterial activity against Klebsiella pneumoniae after 24 hrs by broth dilution method
[28] = system: Pseudomonas aeruginosa; experiment: Antibacterial activity against Pseudomonas aeruginosa at 50 ug/well after 24 hrs by agar well diffusion method; conditions: read-out: DIZ
[29] = system: Aspergillus niger; experiment: Antifungal activity against Aspergillus niger assessed as inhibition of spore germination at 100 ug/well after 48 hrs by agar well diffusion method; conditions: read-out: DIZ
[30] = system: Aspergillus niger; experiment: Antifungal activity against Aspergillus niger assessed as inhibition of spore germination at 12.5 ug/well after 48 hrs by agar well diffusion method; conditions: read-out: DIZ
[31] = system: Klebsiella pneumoniae; experiment: Antibacterial activity against Klebsiella pneumoniae at 50 ug/well after 24 hrs by agar well diffusion method; conditions: read-out: DIZ
[32] = system: Klebsiella pneumoniae; experiment: Antibacterial activity against Klebsiella pneumoniae at 100 ug/well after 24 hrs by agar well diffusion method; conditions: read-out: DIZ
[33] = system: Aspergillus niger; experiment: Antifungal activity against Aspergillus niger assessed as inhibition of spore germination at 25 ug/well after 48 hrs by agar well diffusion method; conditions: read-out: DIZ
[34] = system: Penicillium chrysogenum; experiment: Fungicidal activity against Penicillium chrysogenum assessed as inhibition of spore germination after 48 hrs
[35] = system: Bacillus subtilis; experiment: Antibacterial activity against Bacillus subtilis at 50 ug/well after 24 hrs by agar well diffusion method; conditions: read-out: DIZ
[36] = Antifungal activity against Penicillium chrysogenum assessed as inhibition of spore germination at 12.5 ug/well after 48 hrs by agar well diffusion method
[37] = system: Pseudomonas aeruginosa; experiment: Ratio of MBC to MIC for Pseudomonas aeruginosa
[38] = system: Pseudomonas aeruginosa; experiment: Antibacterial activity against Pseudomonas aeruginosa at 100 ug/well after 24 hrs by agar well diffusion method; conditions: read-out: DIZ

| Structure (SMILES) | zone of inhibition at 50 µg/disc [1] [mm] | MIC [2] [µg/mL] | zone of inhibition at 25 µg/disc [3] [mm] | inhibition zone (IZ) [4] [mm] | MIC [5] [µg/mL] | MFC [6] [µg/mL] | zone of inhibition at 25 µg/disc [7] [mm] | zone of inhibition at 50 µg/disc [8] [mm] | zone of inhibition at 12.5 µg/disc [9] [mm] | MBC [10] [µg/mL] | inhibition zone (IZ) [11] [mm] | MIC [12] [µg/mL] | MBC [13] [µg/mL] | zone of inhibition at 12.5 µg/disc [14] [mm] | MIC [15] [µg/mL] | zone of inhibition at 100 µg/disc [16] [mm] | MBC [17] [µg/mL] | zone of inhibition at 12.5 µg/disc [18] [mm] | zone of inhibition at 100 µg/disc [19] [mm] | Ratio [20] | also measured |
| --- | --- | --- | --- | --- | --- | --- | --- | --- | --- | --- | --- | --- | --- | --- | --- | --- | --- | --- | --- | --- | --- |
| Nc1nnc(CS(=O)(=O)/C=C\c2ccc(Cl)cc2)s1 | 31 | 12.5 (≈ 39.6 µM) | 23 | 37 | 12.5 (≈ 39.6 µM) | 50 (≈ 158 µM) | 29 | 24 | 22 | > 100 | 41 | 25 (≈ 79.2 µM) | 100 (≈ 317 µM) | 32 | 25 (≈ 79.2 µM) | 32 | 50 (≈ 158 µM) | 24 | 26 | 2 | inhibition zone (IZ) [21]: 35 mm; MIC [22]: 6.25 µg/mL (≈ 19.8 µM); zone of inhibition at 12.5 µg/disc [23]: 28 mm; MBC [24]: 12.5 µg/mL (≈ 39.6 µM); zone of inhibition at 25 µg/disc [25]: 26 mm; zone of inhibition at 25 µg/disc [26]: 34 mm; MIC [27]: 12.5 µg/mL (≈ 39.6 µM); zone of inhibition at 50 µg/disc [28]: 28 mm; zone of inhibition at 100 µg/disc [29]: 32 mm; zone of inhibition at 12.5 µg/disc [30]: 27 mm; zone of inhibition at 50 µg/disc [31]: 36 mm; zone of inhibition at 100 µg/disc [32]: 38 mm; zone of inhibition at 25 µg/disc [33]: 29 mm; MFC [34]: 25 µg/mL (≈ 79.2 µM); zone of inhibition at 50 µg/disc [35]: 30 mm; inhibition zone (IZ) [36]: 34 mm; Ratio [37]: 2; zone of inhibition at 100 µg/disc [38]: 34 mm |
| Nc1nnc(CS(=O)(=O)c2n[nH]cc2-c2ccc(Cl)cc2)s1 | 28 | 12.5 (≈ 35.1 µM) | 22 | 35 | 25 (≈ 70.3 µM) | 100 (≈ 281 µM) | 27 | 23 | 21 | 200 (≈ 562 µM) | 38 | 50 (≈ 141 µM) | 100 (≈ 281 µM) | 30 | 25 (≈ 70.3 µM) | 30 | > 100 | 24 | 25 | >2 | inhibition zone (IZ) [21]: 33 mm; MIC [22]: 12.5 µg/mL (≈ 35.1 µM); zone of inhibition at 12.5 µg/disc [23]: 26 mm; MBC [24]: 50 µg/mL (≈ 141 µM); zone of inhibition at 25 µg/disc [25]: 26 mm; zone of inhibition at 25 µg/disc [26]: 32 mm; MIC [27]: 25 µg/mL (≈ 70.3 µM); zone of inhibition at 50 µg/disc [28]: 28 mm; zone of inhibition at 100 µg/disc [29]: 30 mm; zone of inhibition at 12.5 µg/disc [30]: 24 mm; zone of inhibition at 50 µg/disc [31]: 34 mm; zone of inhibition at 100 µg/disc [32]: 36 mm; zone of inhibition at 25 µg/disc [33]: 26 mm; MFC [34]: 50 µg/mL (≈ 141 µM); zone of inhibition at 50 µg/disc [35]: 28 mm; inhibition zone (IZ) [36]: 31 mm; Ratio [37]: >2; zone of inhibition at 100 µg/disc [38]: 31 mm |
